Measurements from patent EP4527828A1, “BIPHENYL COMPOUND, PHARMACEUTICAL COMPOSITION, METHOD FOR PREPARING SAME, AND USE THEREOF” (Longivitron (Suzhou) Biotechnology Co., Ltd, priority 2022, dated 2023).

Columns and labels:
Human LAG3 protein = molecular target: T1, Human LAG3 protein (Homo sapiens, UniProt P18627); test: SPR interaction assay, CM5 chip amino coupling, human LAG3; type: binding; settings: for Rmax / Kd / Note / kon / koff: ligand Human LAG3 protein; for Kd: Compound 9 fitted in steady-state mode; for Note: bound or not bound; for kon: read-out: Ka; for koff: read-out: Kd
T1 sequence (P18627 23-525): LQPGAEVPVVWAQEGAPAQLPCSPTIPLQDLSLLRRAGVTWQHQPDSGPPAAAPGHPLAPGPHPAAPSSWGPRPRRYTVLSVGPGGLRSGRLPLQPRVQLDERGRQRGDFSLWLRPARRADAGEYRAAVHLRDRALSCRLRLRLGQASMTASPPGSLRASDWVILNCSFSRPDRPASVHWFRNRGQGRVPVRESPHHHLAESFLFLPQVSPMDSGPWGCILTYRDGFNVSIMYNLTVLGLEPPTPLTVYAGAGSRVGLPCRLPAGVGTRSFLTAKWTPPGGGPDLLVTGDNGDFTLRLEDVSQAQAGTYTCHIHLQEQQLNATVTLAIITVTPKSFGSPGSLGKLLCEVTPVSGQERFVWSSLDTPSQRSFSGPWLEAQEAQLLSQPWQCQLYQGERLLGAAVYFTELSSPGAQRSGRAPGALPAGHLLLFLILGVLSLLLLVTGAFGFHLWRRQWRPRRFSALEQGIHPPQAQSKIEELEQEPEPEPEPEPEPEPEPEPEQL
Description: A surface plasmon is an electromagnetic wave on a metal surface and is generated by the interaction of photons and electrons which are freely vibrated. Surface plasmon resonance (SPR) is an optical phenomenon that occurs on the surfaces of two media, and such a phenomenon can be induced by photons or electrons. When light enters an optically thinner medium from an optically denser medium, the phenomenon of total reflection occurs, and an evanescent wave is generated and enters the optically thinner medium. When the totally reflected evanescent wave meets the plasmon wave on the metal surface, resonance may occur, the energy of the reflected light decreases, and a resonance peak occurs on the energy spectrum of the reflected light. Such a resonance is called surface plasmon resonance. The angle of incidence causing the surface plasmon resonance is called an SPR angle. An SPR biosensor provides a sensitive, non-labeled detection technique for monitoring intermolecular interactions in real time. The sensor detects the change in the SPR angle, and the SPR is related to the refractive index of the metal surface. When an analyte binds to the chip surface, the refractive index of the chip surface changes, thus causing the change in the SPR angle. This is the basic principle for the SPR biosensor to detect intermolecular interactions in real time. During the interaction analysis, the change in the SPR angle is recorded on the sensorgram in real time.
Through the information query, the theoretical isoelectric point of the LAG3 protein is about 9.82, and the amino coupling method was contemplated to immobilize the protein. Since the main ligands of the LAG3 protein are FGL1 and MHCII proteins, after the LAG3 protein was coupled, the FGL1 protein sampling method was used to verify the protein activity.
Protein coupling buffer solution: 1.05× PBS-P+; 1.02× PBS-P+
Interaction buffer solution: 1.0× PBS-P+, 5% DMSO; 1.0× PBS-P+, 2% DMSO
In this experiment, by using the CM5 chip amino coupling method, the human LAG3 protein was immobilized to the Fc2 or Fc3 channel, and the mouse LAG3 protein was immobilized to the Fc3 or Fc4 channel.
LAG3 protein coupling conditions were as follows: the concentration was about 25 µg/mL, the system was sodium acetate solution with a pH of 5.5, the chip activation time was 420 s, and the blocking time was 420 s.
LAG3 protein coupling conditions were as follows: the concentration was about 50 µg/mL, the system was sodium acetate solution with a pH of 4.5, the chip activation time was 420 s, and the blocking time was 420 s.

LAG3/FGL1 = molecular target: T2, LAG3/FGL1 (Homo sapiens, UniProt P18627); test: HTRF binding inhibition of LAG3 and its ligand FGL1; settings: Table 2; read-out: IC50 value for inhibiting LAG3/FGL1 interaction
T2 sequence (P18627 23-450 limits assumed): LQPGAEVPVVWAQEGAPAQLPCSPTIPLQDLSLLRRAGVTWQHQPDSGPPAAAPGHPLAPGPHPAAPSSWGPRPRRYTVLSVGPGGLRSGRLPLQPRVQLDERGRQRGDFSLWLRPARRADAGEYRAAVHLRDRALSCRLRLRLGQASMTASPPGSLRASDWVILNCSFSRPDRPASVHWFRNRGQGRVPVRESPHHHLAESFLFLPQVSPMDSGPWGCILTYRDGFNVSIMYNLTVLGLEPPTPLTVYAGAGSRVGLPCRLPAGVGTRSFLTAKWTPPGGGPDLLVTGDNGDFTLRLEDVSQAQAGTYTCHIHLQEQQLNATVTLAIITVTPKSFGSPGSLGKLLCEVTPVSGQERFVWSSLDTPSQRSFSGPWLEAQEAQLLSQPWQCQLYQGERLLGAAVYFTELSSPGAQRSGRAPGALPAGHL
Protocol: Reagent preparation: ① Tag1-LAG3 protein: a protein solution with a concentration of 50 nM (20 µL with a final system concentration of 10 nM) was prepared using a diluent. ② Tag2-FGL1 protein: a protein solution with a concentration of 100 nM (20 µL with a final system concentration of 20 nM) was prepared using a diluent. ③ Anti-Tag1-Tb: a 100× stock solution was diluted with a detection buffer to a 1 × stock solution. ④ Anti-Tag2-XL665: a 100× stock solution was diluted with a detection buffer to a 1 × stock solution.
Assay step: (1) 2 µL of compound solution (with a concentration to be measured of 10×) was added to a 384-well opaque plate having a white background, 4 µL of Tag1-LAG3 protein and 4 µL of Tag2-FGL1 protein were added, respectively, and the plate was incubated at room temperature for 15 min; (2) Anti-Tag1-Tb and Anti-Tag2-XL665 were mixed at a ratio of 1:1 in advance, and 10 µL of mix solution was added to each well; (3) the plate was gently mixed, sealed, and incubated at room temperature for 1 h or overnight before detection.

| Structure (SMILES) | interaction with the human LAG3 protein (Human LAG3 protein) | Rmax (Human LAG3 protein) | Kd (Human LAG3 protein) | Note (Human LAG3 protein) | kon (Human LAG3 protein) | koff (Human LAG3 protein) | IC50 (LAG3/FGL1) |
| --- | --- | --- | --- | --- | --- | --- | --- |
| CCCCCCOc1ccc2cc1-c1cc(ccc1OCCCCCC)C(=O)CCCCCC2=O [Compound 4] | interacts with the human LAG3 protein | 124.7 RU | 52.9 µM | Bound | 418 M⁻¹ s⁻¹ | 0.0221 s⁻¹ | – |
| CCCCCCOc1ccc(C(=O)O)cc1-c1cc(C(=O)NCCCCNC(=O)C(F)(F)F)ccc1OCCCCCC [Compound 8] | interacts with the human LAG3 protein | 8.639 RU | 7.76 µM | Bound | 446 M⁻¹ s⁻¹ | 0.00346 s⁻¹ | 10 µM |
